# Results from publication PMC2610413 (Bioorganic & medicinal chemistry letters, 2008).
# Assays:
# [1] = cited from earlier work
# [2] = target: Blk (Homo sapiens, UniProt P51451); assay: Biochemical enzymatic kinase assay, Blk
# [3] = system: Tel-tyrosine kinase (Blk) transformed Ba/F3 cells; assay: Cytotoxicity assay, Tel-Blk transformed Ba/F3 cells; conditions: cellular assay
# [4] = system: EGFR (T790M); conditions: cited from earlier work
# [5] = target: Bmx kinase domain (Homo sapiens, UniProt P51813); assay: Mass spectrometry of covalent modification of recombinant Bmx kinase domain; assay type: binding
# [6] = target: Tel-wild-type Bmx transformed Ba/F3 cells (Homo sapiens, UniProt P51813); assay: Cytotoxicity assay, Tel-wild-type Bmx transformed Ba/F3 cells; assay type: cell-based; conditions: cellular assay
# Sequence of Tel-wild-type Bmx transformed Ba/F3 cells (P41212 1-336 partner, one chain of several): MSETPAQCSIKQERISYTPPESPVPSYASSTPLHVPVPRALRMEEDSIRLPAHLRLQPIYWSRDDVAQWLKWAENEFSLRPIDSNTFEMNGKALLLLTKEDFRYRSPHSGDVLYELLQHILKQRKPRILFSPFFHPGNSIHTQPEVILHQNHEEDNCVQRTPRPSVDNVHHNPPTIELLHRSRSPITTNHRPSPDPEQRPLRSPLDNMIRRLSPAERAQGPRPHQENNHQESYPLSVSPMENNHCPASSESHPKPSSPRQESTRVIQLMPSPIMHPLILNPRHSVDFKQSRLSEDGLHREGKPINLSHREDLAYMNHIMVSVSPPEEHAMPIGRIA
# [7] = target: T1, Bmx (Homo sapiens, UniProt P51813); assay: Biochemical enzymatic kinase assay, Bmx
# T1 sequence (P51813 1-675): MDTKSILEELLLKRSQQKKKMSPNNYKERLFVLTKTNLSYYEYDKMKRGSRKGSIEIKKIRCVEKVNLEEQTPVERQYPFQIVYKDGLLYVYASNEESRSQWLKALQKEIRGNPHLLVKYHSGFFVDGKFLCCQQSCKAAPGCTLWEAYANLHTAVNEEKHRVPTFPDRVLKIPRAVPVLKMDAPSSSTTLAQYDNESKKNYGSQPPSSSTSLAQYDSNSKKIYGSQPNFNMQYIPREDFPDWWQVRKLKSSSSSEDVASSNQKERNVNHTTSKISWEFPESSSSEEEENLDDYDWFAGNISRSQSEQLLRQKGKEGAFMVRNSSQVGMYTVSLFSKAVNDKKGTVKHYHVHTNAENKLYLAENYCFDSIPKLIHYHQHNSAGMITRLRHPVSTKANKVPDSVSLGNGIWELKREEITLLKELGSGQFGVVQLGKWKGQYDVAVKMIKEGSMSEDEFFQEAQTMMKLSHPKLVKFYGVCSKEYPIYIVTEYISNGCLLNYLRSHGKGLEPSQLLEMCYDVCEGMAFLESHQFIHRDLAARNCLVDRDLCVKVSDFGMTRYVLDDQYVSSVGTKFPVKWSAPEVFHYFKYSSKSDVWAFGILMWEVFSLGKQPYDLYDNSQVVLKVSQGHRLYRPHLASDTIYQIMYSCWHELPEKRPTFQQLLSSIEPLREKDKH
# [8] = target: T2, full-length Flag-Bmx (Homo sapiens, UniProt P51813); conditions: 10 μM; immunoprecipitated Flag-Bmx pre-incubated with drug at 4°C for 2 hrs
# T2 sequence (P51813 1-675): T1 sequence (P51813 1-675)
# Sequence of Blk (P51451 whole entry, species assumed): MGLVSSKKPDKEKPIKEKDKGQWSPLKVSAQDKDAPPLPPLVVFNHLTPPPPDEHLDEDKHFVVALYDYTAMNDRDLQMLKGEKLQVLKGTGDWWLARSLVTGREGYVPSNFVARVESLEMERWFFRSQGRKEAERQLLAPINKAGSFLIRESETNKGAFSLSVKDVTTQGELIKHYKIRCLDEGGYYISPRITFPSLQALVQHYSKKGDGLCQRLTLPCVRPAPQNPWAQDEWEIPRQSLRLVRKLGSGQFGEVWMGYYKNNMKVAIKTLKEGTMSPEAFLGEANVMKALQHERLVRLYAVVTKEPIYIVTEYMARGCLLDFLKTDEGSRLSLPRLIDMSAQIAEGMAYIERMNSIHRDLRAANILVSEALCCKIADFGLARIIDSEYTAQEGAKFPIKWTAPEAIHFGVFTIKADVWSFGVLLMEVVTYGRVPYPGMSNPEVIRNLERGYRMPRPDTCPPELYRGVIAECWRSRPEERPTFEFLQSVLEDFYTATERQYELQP
smiles,measurement,setting,value
C=CC(=O)Nc1cc2c(Nc3ccc(F)c(Cl)c3)ncnc2cc1OCCCN1CCOCC1 [CI-1033],toxicity in clinical phase II study,[1],severe toxicity
same,inhibitory activity against Blk,[2],potent inhibitory activity
same,inhibitory activity against Blk,[3],potent inhibitory activity
CCOc1cc2ncc(C#N)c(Nc3ccc(F)c(Cl)c3)c2cc1NC(=O)/C=C/CN(C)C [EKB-569],inhibition of EGFR (T790M),[4],strongly inhibit
C=CC(=O)Nc1ccc2ncnc(Nc3cccc(Br)c3)c2c1 [PD168393],site of modification,"[5]; chymotryptic peptide ISNGCLL, tandem MS",modification of cysteine 496
same,mass increase of Bmx kinase domain after incubation with inhibitor,[5]; consistent with covalent addition of a single inhibitor molecule,369 Da
same,inhibitory activity against Bmx,[6],only moderate potency
same,inhibitory activity against Bmx,[7],only moderate potency
C#Cc1cccc(Nc2ncnc3cc(OCCOC)c(OCCOC)cc23)c1 [erlotinib],in vitro autophosphorylation of Bmx (32P incorporation),[8],not affected
